Results taken from US8512726B1, “Molecular gel-based control release devices for pheromones” (The United States of America, as represented by the …, priority 2010, dated 2013).

Legend:
[1] = at 20 C; cited from earlier work
[2] = system: varroa (Varroa destructor); settings: at elevated levels, honey bee colonies; cited from earlier work
[3] = Biodegradation: mineralization in compost, respirometer; settings: room temperature (22° C.), compared to starch control
Protocol: The relative degradation rate of samples was determined using a respirometer (Micro-Oxymax System, Columbus Instruments, Columbus, Ohio). The respirometer CO2 sensor was calibrated with a CO2 standard gas (8,000 ppm). […] The analyzer was equipped with a thermoconductivity detector and was operated using helium gas.
Commercial compost was purchased locally and adjusted to 58% moisture (dry weight basis). The glass sample bottles (250 ml) were filled with 20.0 g compost and 0.30 g test sample that was gently mixed with the compost. The sample bottles were initially flushed with CO2-free air and sealed. Respirometry experiments were conducted at room temperature (22° C.) and CO2 concentration was read every 12 hr. Three replications were tested for each treatment and data were expressed in terms of percentage mineralization.

CCCCCC(C)=O [2-heptanone]
vapor pressure [1]: 0.48 kPa
Control of parasitic mites [2]: controls parasitic mites

mannitol dioctanoate [M8]
Mineralization rate (biodegradability) [3]: mineralized at nearly the same rate as the starch control
